Laboratory results taken from publication PMC4992173, “Divergent synthesis and identification of the cellular targets of deoxyelephantopins” (Nature Communications, 2016).

Assays:
PPARγ = target: T1, PPARγ (Homo sapiens, UniProt P37231); test: Gel-based screening for PPARγ binders using probe 24c-Cy3; type: binding; set-up: purchased Cayman Chemical; conditions: 20 μM, 1 h, then 10 μM 24c-Cy3; 19a named first, 28 second
T1 sequence (P37231 1-505): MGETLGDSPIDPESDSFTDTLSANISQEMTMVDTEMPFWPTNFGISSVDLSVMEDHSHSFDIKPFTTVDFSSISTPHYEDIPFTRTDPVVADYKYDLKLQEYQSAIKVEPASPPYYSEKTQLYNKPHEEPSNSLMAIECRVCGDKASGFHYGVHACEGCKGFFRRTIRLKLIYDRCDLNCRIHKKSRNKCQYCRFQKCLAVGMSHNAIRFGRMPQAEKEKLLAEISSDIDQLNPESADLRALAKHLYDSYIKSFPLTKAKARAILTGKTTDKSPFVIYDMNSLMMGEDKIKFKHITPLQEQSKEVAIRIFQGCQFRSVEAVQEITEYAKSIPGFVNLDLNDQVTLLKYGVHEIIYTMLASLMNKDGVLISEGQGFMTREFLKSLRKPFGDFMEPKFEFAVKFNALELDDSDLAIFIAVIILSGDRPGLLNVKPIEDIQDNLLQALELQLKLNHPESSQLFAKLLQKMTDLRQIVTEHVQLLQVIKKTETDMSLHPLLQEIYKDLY
Description: (c) Gel-based competitive screening of DEP and analogues as PPARγ antagonists against recombinant human enzyme (top). hPPARγ was treated with each compound (20 μM) for 1 h followed by treatment with 24c-Cy3 (10 μM) as probe. Quantification of fluorescence intensity in the competitive screening for PPARγ antagonists (bottom; values±s.d. are shown; n=3).
Briefly, recombinant human PPARγ was pretreated with compounds at 20 μM concentration followed by the probe 24c-Cy3.
Samples were then treated with 10 μM 24c-Cy3 (0.5 μl of 25 × stock in DMSO) for 1 h at room temperature in the dark. SDS–PAGE reducing loading buffer (4 ×) was added and proteins were separated using a 10% SDS–PAGE gel. Gels were visualized at 625 nm using a Hitachi FMBIO II Multi-View fluorescence scanner, then stained using silver staining. Images were quantified with ImageJ.

[1] = target: T2, Glyoxylate reductase/hydroxypyruvate reductase (GRHPR) (Homo sapiens, UniProt Q9UBQ7); test: SILAC competitive profiling with probe 24c in MCF7 lysates: GRHPR; type: binding; conditions: protein GRHPR, 1 h, then 10 µM 24c
T2 construct: endogenous in cells; host or cells: MCF7
Description: In our efforts to determine the direct molecular targets of deoxyelephantopin we first performed a gel-based competitive in situ proteomic profiling assay[41] […] While the greater conformational flexibility of probe 24c could potentially lead to more promiscuous target engagement relatively to deoxyelephantopin, it was favoured based on the fact that an alkyne moiety appended to the rigid scaffold of deoxyelephantopin may hinder some of its interactions. MCF7 cells were pretreated with various concentrations of deoxyelephantopin for 4 h, harvested, lysed and the lysates were treated with the fluorogenic probe 24c-Cy3 (10 μM; Supplementary Fig. 10). […] Furthermore, cells were pretreated with 20 μM concentration of deoxyelephantopin or 24c and the proteomic profiles were compared (Fig. 6b, Supplementary Fig. 11). Multiple bands were detected that were equally competed by both DEP and 24c, thus again confirming that 24c can be used as an acceptable clickable analogue of deoxyelephantopin in pulldown assays. Having established the optimal labelling conditions by SDS–PAGE, we next carried out a mass spectrometry-based competitive profiling assay[42] coupled with the method of stable isotope labelling of amino acids in culture (SILAC)[43]. […]
visualization were performed as described above. Images were quantified with ImageJ and kinetics values were calculated using GraphPad Prism (V6.03). […]

T2 sequence (Q9UBQ7 whole entry): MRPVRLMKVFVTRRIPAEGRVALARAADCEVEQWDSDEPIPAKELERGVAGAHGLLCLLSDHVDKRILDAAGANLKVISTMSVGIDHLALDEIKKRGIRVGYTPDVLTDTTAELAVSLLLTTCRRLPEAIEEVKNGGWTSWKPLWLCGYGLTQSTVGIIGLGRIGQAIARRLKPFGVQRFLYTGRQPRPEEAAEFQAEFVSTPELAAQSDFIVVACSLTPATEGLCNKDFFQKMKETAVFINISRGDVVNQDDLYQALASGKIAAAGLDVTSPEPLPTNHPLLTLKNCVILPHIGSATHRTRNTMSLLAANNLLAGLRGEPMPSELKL

rank as covalent binder to PPARγ (competition of 24c-Cy3 labelling) (PPARγ) | SMILES | SILAC ratio 20 µM Deoxyelephantopin/DMSO with 24c [1]
most effective covalent binder | C=C(C)C(=O)O[C@H]1CC2=C[C@H](C/C=C\[C@H]3OC(=O)C(=C)[C@H]13)OC2=O [19a] | 
 | C=C(C)C(=O)O[C@H]1CC2=C[C@@H](C/C(C)=C/[C@H]3OC(=O)C(=C)[C@H]13)OC2=O [deoxyelephantopin] | 0.23
